The target in one experiment is Vasopressin Receptor V1a (Homo sapiens, UniProt P37288). The experiment in a line: Vasopressin Receptor V1a ANT. The conditions noted are these: antagonist; read-out: pIC50 Vasopressin Receptor V1a ANT (converted). An excerpt: (§1) ANT = antagonist (pIC50), AG = agonist (pEC50). pIC50 and pEC50 are the negative logarithms10 of IC50 and EC50, respectively. Click here for file

For a further experiment, the target named is Opioid Receptor m (Homo sapiens, UniProt P35372). The experiment in a line: Opioid Receptor m AG. To be noted: agonist; read-out: pEC50 Opioid Receptor m AG (converted).
From the text: as §1

For the next experiment, the target named is Dopamin Receptor D1 (Homo sapiens, UniProt P21728). The experiment in a line: Dopamin Receptor D1 ANT. The conditions noted are these: antagonist; read-out: pIC50 Dopamin Receptor D1 ANT (converted).
From the text: as §1

The next experiment addresses Dopamin Receptor D2 (Homo sapiens, UniProt P14416). Description: Dopamin receptor D2 ANT. The conditions noted are these: antagonist; read-out: pIC50 Dopamin receptor D2 ANT (converted).
From the text: as §1

Experiment [1] deals with T1, Muscarinic Receptor M1 (Homo sapiens, UniProt P11229).
T1 sequence (P11229 1-460): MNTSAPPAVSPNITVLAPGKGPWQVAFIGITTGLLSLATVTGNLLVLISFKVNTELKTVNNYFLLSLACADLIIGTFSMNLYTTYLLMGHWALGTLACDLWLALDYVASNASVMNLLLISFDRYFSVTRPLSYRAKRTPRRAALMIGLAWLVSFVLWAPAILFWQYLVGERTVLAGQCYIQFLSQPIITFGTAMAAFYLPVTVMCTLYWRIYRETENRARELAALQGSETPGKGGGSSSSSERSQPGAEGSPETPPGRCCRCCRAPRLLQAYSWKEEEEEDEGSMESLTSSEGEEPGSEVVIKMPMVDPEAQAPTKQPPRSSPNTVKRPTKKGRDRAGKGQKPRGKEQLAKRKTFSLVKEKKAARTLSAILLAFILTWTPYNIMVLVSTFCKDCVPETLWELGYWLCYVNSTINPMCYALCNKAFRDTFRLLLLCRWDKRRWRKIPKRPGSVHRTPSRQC
The experiment in a line: Muscarinic Receptor M1 AG. The conditions noted are these: agonist; read-out: pEC50 Muscarinic Receptor M1 AG (converted).
From the text: as §1

Another experiment has as its target T2, Muscarinic Receptor M2 (Homo sapiens, UniProt P08172).
T2 sequence (P08172 1-466): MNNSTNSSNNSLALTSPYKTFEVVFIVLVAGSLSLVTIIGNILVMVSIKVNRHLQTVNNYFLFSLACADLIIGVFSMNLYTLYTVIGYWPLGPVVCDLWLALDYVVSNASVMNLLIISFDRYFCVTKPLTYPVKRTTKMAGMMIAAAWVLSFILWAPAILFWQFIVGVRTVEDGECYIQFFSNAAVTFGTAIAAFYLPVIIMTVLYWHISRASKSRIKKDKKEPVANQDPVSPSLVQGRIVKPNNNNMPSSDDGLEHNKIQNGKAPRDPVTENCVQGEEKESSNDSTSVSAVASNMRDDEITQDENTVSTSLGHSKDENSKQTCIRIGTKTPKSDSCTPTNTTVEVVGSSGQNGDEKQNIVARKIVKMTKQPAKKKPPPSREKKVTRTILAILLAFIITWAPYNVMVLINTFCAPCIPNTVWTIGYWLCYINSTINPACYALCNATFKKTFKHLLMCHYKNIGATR
Description: Muscarinic Receptor M2 AG. To be noted: agonist; read-out: pEC50 Muscarinic Receptor M2 AG (converted).
From the text: as §1

For another experiment, the target named is Serotonin Receptor 5HT1B (Homo sapiens, UniProt P28222). Description: Serotonin Receptor 5HT1B ANT. To be noted: antagonist; read-out: pIC50 Serotonin Receptor 5HT1B ANT (converted).
From the text: as §1

The target of a further experiment is Opioid Receptor k (Homo sapiens, UniProt P41145). The experiment in a line: Opioid Receptor k AG. To be noted: agonist; read-out: pEC50 Opioid Receptor k AG (converted).
From the text: as §1

For the next experiment, the target named is T3, Serotonin Receptor 5HT2C (Homo sapiens, UniProt P28335).
T3 sequence (P28335 33-458): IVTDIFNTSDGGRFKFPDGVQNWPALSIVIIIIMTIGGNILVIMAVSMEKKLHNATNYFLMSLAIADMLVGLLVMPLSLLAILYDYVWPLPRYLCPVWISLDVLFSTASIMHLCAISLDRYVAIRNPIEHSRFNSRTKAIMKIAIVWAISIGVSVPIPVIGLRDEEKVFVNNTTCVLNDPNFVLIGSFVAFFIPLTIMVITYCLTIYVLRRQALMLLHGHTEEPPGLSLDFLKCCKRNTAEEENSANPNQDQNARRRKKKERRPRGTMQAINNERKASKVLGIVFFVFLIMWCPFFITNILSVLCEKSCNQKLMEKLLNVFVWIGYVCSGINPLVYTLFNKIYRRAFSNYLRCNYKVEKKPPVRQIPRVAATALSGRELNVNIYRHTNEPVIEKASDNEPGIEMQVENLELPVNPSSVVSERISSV
Description: Serotonin Receptor 5HT2C ANT. The conditions noted are these: antagonist; read-out: pIC50 Serotonin Receptor 5HT2C ANT (converted).
From the text: as §1

A further experiment has as its target T4, Serotonin Receptor 5HT3 (Homo sapiens, UniProt P46098).
T4 sequence (P46098 24-478): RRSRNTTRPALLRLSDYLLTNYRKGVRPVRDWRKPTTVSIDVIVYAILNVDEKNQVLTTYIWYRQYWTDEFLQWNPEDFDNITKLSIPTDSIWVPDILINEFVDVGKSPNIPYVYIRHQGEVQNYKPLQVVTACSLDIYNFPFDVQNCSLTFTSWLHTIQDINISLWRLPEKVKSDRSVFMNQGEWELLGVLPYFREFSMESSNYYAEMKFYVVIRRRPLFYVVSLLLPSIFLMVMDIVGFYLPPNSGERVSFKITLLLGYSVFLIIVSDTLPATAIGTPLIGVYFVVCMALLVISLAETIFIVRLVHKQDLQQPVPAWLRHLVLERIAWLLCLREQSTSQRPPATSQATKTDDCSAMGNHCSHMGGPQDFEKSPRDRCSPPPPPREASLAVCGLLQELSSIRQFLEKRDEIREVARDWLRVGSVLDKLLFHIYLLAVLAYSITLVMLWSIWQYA
The experiment in a line: Serotonin Receptor 5HT3 ANT. To be noted: antagonist; read-out: pIC50 Serotonin Receptor 5HT3 ANT (converted).
From the text: as §1

For a further experiment, the target named is Pregnane X receptor (Homo sapiens, UniProt O75469). Description: Pregnane X receptor AG. To be noted: agonist; read-out: pEC50 Pregnane X receptor AG (converted).
From the text: as §1

For the next experiment, the system named is Snu398 cells. Description: Lactate production assay, Snu398 (RapidFire-MS). To be noted: Homo sapiens, SNU-398, read-out: lactate production EC50.
Experiment [2] deals with T1, Muscarinic Receptor M1. Description: Muscarinic Receptor M1 ANT. To be noted: antagonist; read-out: pIC50 Muscarinic Receptor M1 ANT (converted).
From the text: as §1

Chain of Dopamin Receptor D1 (P21728 whole entry): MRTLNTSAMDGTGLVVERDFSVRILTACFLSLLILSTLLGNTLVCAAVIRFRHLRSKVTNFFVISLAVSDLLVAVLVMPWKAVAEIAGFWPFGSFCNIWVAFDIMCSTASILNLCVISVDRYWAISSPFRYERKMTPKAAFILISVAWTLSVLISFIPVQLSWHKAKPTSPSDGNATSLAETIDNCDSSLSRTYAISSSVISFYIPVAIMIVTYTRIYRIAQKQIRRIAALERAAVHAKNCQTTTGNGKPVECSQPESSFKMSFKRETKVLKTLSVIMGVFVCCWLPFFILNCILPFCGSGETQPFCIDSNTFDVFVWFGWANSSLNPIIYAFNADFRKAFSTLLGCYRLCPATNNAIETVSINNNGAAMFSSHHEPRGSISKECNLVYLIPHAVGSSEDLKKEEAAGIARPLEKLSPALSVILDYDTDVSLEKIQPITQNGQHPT
Chain of Pregnane X receptor (O75469 whole entry, species assumed): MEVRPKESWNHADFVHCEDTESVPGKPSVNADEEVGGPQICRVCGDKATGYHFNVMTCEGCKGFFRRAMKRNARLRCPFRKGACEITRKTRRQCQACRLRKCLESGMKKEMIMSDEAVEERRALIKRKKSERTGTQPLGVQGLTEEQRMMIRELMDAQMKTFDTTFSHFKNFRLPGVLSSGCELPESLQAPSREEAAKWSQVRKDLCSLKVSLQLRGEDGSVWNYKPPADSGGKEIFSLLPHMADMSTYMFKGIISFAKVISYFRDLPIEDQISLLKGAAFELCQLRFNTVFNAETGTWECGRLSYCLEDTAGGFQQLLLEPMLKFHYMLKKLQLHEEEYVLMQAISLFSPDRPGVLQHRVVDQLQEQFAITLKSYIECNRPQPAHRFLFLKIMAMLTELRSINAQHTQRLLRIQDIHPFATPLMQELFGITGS
Chain of Opioid Receptor k (P41145 whole entry): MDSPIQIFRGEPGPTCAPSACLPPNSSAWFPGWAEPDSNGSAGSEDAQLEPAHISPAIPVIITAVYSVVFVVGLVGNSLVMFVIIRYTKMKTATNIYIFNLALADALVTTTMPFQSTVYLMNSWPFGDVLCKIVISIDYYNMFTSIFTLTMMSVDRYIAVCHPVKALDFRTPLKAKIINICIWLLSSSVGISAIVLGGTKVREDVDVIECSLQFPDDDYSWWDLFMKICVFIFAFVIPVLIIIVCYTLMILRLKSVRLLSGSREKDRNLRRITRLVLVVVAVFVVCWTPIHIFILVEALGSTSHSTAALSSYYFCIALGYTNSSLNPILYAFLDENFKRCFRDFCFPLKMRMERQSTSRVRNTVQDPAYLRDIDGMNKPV
Chain of Serotonin Receptor 5HT1B (P28222 whole entry): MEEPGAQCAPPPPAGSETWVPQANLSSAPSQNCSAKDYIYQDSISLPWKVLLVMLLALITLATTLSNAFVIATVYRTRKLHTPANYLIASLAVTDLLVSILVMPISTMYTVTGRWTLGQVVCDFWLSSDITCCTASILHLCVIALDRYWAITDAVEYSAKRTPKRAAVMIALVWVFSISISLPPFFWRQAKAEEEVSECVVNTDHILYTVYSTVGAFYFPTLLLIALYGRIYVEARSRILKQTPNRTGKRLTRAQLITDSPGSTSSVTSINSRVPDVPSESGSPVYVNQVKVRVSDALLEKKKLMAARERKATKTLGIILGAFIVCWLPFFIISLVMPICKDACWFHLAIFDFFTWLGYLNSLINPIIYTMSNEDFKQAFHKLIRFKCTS
Chain of Opioid Receptor m (P35372 whole entry): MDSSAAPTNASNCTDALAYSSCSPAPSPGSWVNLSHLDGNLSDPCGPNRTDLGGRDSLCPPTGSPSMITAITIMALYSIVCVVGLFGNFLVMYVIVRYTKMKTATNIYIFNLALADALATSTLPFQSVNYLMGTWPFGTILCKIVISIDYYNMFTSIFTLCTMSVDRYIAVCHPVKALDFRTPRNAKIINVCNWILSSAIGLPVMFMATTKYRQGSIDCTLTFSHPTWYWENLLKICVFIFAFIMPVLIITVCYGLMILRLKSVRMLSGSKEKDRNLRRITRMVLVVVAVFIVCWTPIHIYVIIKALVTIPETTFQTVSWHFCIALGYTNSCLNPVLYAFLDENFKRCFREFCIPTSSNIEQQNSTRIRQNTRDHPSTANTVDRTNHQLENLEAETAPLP
Chain of Dopamin Receptor D2 (P14416 whole entry): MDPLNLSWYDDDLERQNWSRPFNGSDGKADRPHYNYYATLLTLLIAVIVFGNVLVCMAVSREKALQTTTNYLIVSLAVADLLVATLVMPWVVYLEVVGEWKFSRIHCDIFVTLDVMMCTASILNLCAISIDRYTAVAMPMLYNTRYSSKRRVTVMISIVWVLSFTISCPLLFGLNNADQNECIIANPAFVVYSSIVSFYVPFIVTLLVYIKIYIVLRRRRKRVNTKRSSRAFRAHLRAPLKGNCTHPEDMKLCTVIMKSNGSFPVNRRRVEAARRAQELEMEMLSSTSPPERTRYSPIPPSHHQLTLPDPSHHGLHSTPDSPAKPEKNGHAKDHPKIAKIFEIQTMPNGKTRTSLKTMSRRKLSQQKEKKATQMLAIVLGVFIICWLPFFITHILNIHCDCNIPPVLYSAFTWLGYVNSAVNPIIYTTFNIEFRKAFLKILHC
Chain of Vasopressin Receptor V1a (P37288 whole entry): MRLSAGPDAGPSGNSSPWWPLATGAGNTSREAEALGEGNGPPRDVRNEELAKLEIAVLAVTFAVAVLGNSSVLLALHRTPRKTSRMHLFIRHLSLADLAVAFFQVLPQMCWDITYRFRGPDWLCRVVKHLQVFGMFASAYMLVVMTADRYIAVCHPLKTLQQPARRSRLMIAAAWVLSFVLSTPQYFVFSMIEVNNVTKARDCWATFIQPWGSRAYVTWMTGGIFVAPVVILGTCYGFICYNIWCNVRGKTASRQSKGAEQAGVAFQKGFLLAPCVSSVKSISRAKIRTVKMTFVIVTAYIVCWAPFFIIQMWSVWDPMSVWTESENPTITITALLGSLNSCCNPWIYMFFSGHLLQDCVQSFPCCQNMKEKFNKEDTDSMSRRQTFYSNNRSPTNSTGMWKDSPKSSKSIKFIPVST

Take `COc1ncc(-c2ccc3c(Nc4cc(C(=O)O)cc(C5CCCC5)c4)c(S(=O)(=O)NC4CC4)cnc3c2)c(OC)n1` [Compound 2]: the IC50 is 20 µM at Vasopressin Receptor V1a; 31.6 µM at Dopamin Receptor D1; 100 µM on Dopamin Receptor D2; 31.6 µM on Serotonin Receptor 5HT1B; 39.8 µM on Serotonin Receptor 5HT2C; 12.6 µM at Serotonin Receptor 5HT3. For the same molecule, on Muscarinic Receptor M1 [2], the IC50 is 15.8 µM. Moreover, the EC50 at Opioid Receptor m was 100 µM; on Muscarinic Receptor M1 [1], 15.8 µM; on Muscarinic Receptor M2, 15.8 µM; on Opioid Receptor k, 100 µM; at Pregnane X receptor, 50.1 µM; in the experiment with Snu398 cells it was 0.6 ± 0.2 µM.
With `COc1ncc(-c2ccc3c(Nc4cc(Oc5cc(F)cc(F)c5)cc(C(=O)O)c4)c(S(=O)(=O)NC4CC4)cnc3c2)c(OC)n1` [Compound 1], the IC50 at Vasopressin Receptor V1a was 50.1 µM; on Dopamin Receptor D1, 31.6 µM; on Dopamin Receptor D2, 39.8 µM; at Serotonin Receptor 5HT1B it was 31.6 µM; at Serotonin Receptor 5HT2C it was 39.8 µM; at Serotonin Receptor 5HT3 it was 50.1 µM. The IC50 on Muscarinic Receptor M1 [2] is 15.8 µM. Also, the EC50 on Opioid Receptor m was 100 µM; on Muscarinic Receptor M1 [1], 15.8 µM; at Muscarinic Receptor M2 it was 15.8 µM; on Opioid Receptor k, 100 µM; at Pregnane X receptor it was 50.1 µM; in the experiment on Snu398 cells, 0.4 ± 0.1 µM.

Values taken from publication PMC4178217, “Quinoline 3-sulfonamides inhibit lactate dehydrogenase A and reverse aerobic glycolysis in cancer cells” (Cancer & Metabolism, 2013).
